Assay results taken from the supplement of paper PMC10307832.

Assays:
Assay in all cases: relative viability (nuclei count vs DMSO), 5 days (fraction); higher = more cells survive
[1] = compound: C1CN(CCN1)C2=CC=C(C=C2)C3=CN4C(=C(C=N4)C5=CC=NC6=CC=CC=C56)N=C3 [DM3189] + C[C@]1(O)C[C@@H](c2nc(-c3ccc4ccc(-c5ccccc5)nc4c3)c3c(N)nccn32)C1 [Linsitinib] (partner 1 µM)
How it was run: (§1)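 Relative viability divides the nuclei count in treated wells by that in vehicle wells. Lung cancer cell lines were seeded in 1536-well plates, dosed by pin tool the next day, and fixed and stained after 5 days in one step with final 0.05% Triton X-100, 1% formaldehyde and 1 ug/ml Hoechst. Dosing was a single drug or a fixed anchor-drug dose plus five library-drug doses (not always all listed) in √10 steps, and values are medians of duplicate plates imaged at 4×.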

[2] = compound: C1CN(CCN1)C2=CC=C(C=C2)C3=CN4C(=C(C=N4)C5=CC=NC6=CC=CC=C56)N=C3 [DM3189] + Nc1nc2[nH]cc(CCc3ccc(C(=O)N[C@@H](CCC(=O)O)C(=O)O)cc3)c2c(=O)[nH]1 [Pemetrexed] (partner 0.2 µM)
How it was run: as §1

[3] = compound: C1CN(CCN1)C2=CC=C(C=C2)C3=CN4C(=C(C=N4)C5=CC=NC6=CC=CC=C56)N=C3 [DM3189] + Cc1cc(Nc2cc(N3CCN(C)CC3)nc(Sc3ccc(NC(=O)C4CC4)cc3)n2)n[nH]1 [Tozasertib] (partner 0.1 µM)
How it was run: as §1

[4] = compound: C1CN(CCN1)C2=CC=C(C=C2)C3=CN4C(=C(C=N4)C5=CC=NC6=CC=CC=C56)N=C3 [DM3189] + CC(C)C[C@H](NC(=O)[C@H](Cc1ccccc1)NC(=O)c1cnccn1)B(O)O [Bortezomib] (partner 0.002 µM)
How it was run: as §1

[5] = compound: C1CN(CCN1)C2=CC=C(C=C2)C3=CN4C(=C(C=N4)C5=CC=NC6=CC=CC=C56)N=C3 [DM3189] + N=C(N)NC(=N)NCCc1ccccc1 [Phenformin] (partner 250 µM)
How it was run: as §1

Cell Line	relative viability ([1]; first compound 0.08 µM)	relative viability ([1]; first compound 0.253 µM)	relative viability ([1]; first compound 0.8 µM)	relative viability ([1]; first compound 2.53 µM)	relative viability ([2]; first compound 0.08 µM)	relative viability ([2]; first compound 0.253 µM)	relative viability ([2]; first compound 0.8 µM)	relative viability ([2]; first compound 2.53 µM)	relative viability ([3]; first compound 0.08 µM)	relative viability ([3]; first compound 0.253 µM)	relative viability ([3]; first compound 0.8 µM)	relative viability ([3]; first compound 2.53 µM)	relative viability ([4]; first compound 0.08 µM)	relative viability ([4]; first compound 0.253 µM)	relative viability ([4]; first compound 0.8 µM)	relative viability ([4]; first compound 2.53 µM)	relative viability ([5]; first compound 0.08 µM)	relative viability ([5]; first compound 0.253 µM)	relative viability ([5]; first compound 0.8 µM)	relative viability ([5]; first compound 2.53 µM)
HARA	1.2	0.853	0.997	1.31	0.239	0.205	0.227	0.232	0.0946	0.0943	0.0953	0.0845	1.28	1.11	1.04	1.2	0.515	0.42	0.391	0.568
H3255	0.951	0.982	0.846	0.994	0.682	0.537	0.555	0.559	0.271	0.604	0.715	0.762	1.46	0.812	0.708	0.801	0.305	0.422	0.338	0.376
NCI-H460	1.21	0.879	0.708	0.353	0.0522	0.0522	0.0641	0.0646	0.384	0.393	0.12	0.277	1.19	1.07	1.06	0.255	0.737	0.535	0.451	0.545
CAL-12T	0.714	0.823	0.925	0.884	1.2	1.06	1.09	0.921	0.318	0.234	0.327	0.403	1.27	0.931	0.907	0.958	0.588	0.571	0.526	0.703
NCI-H1437	1.05	1.06	0.966	0.893	0.34	0.333	0.326	0.293	0.396	0.369	0.379	0.397	0.601	0.442	0.543	0.628	0.363	0.325	0.308	0.323
HOP-62	1.05	0.901	0.98	1.03	0.32	0.296	0.295	0.346	0.31	0.347	0.389	0.356	1.18	0.927	0.393	0.58	0.691	0.722	0.6	0.682
EPLC-272H	1.24	1.3	1.16	1.29	0.275	0.318	0.338	0.276	0.418	0.252	0.235	0.253	1.07	0.86	0.868	0.831	0.284	0.293	0.25	0.276
COR-L 105	0.905	1.08	0.804	1.25	1.13	1.22	1.26	1.13	0.434	0.371	0.32	0.358	1.38	0.771	0.795	0.322	0.534	0.53	0.433	0.297
HCC-366	0.641	0.538	0.55	0.649	0.139	0.166	0.116	0.149	0.133	0.0982	–	0.0984	1.12	0.99	0.931	1.06	0.531	0.611	–	0.605
HCC-44	0.711	0.724	0.56	0.733	0.606	0.602	0.581	0.622	0.999	0.912	0.727	0.954	0.975	0.905	0.781	0.995	0.218	0.155	0.178	0.153
NCI-H2023	0.683	0.694	0.496	0.667	0.235	0.231	0.236	0.178	0.442	0.304	0.259	0.266	1.12	0.961	0.823	0.514	0.368	0.363	0.428	0.347
NCI-H2347	0.98	1	0.907	0.97	0.473	0.51	0.432	0.518	0.464	0.475	0.521	0.515	1.08	0.91	0.944	1.17	0.399	0.45	0.53	0.434
NCI-H838	0.969	0.918	0.716	0.87	0.238	0.255	0.239	0.22	0.256	0.249	0.255	0.281	1	0.64	0.633	0.92	0.775	0.507	0.471	0.385
NCI-H1355	0.785	0.793	0.663	0.738	1.03	0.986	0.821	1.03	0.547	0.55	0.513	0.438	1.21	1.22	0.992	1.17	0.438	0.43	0.405	0.394
NCI-H2085	0.932	0.858	0.973	0.946	0.885	0.886	0.941	0.869	0.903	0.747	0.898	0.951	1.08	1.04	1.03	0.958	0.722	0.72	0.633	0.75
NCI-H2126	0.708	0.799	0.779	0.799	0.717	0.624	0.565	0.652	0.823	0.767	0.739	0.803	1.19	1.18	1.19	1.12	0.576	0.529	0.483	0.522

Cell Line	relative viability ([1]; first compound 0.08 µM)	relative viability ([1]; first compound 0.253 µM)	relative viability ([1]; first compound 0.8 µM)	relative viability ([1]; first compound 2.53 µM)	relative viability ([2]; first compound 0.08 µM)	relative viability ([2]; first compound 0.253 µM)	relative viability ([2]; first compound 0.8 µM)	relative viability ([2]; first compound 2.53 µM)	relative viability ([3]; first compound 0.08 µM)	relative viability ([3]; first compound 0.253 µM)	relative viability ([3]; first compound 0.8 µM)	relative viability ([3]; first compound 2.53 µM)	relative viability ([4]; first compound 0.08 µM)	relative viability ([4]; first compound 0.253 µM)	relative viability ([4]; first compound 0.8 µM)	relative viability ([4]; first compound 2.53 µM)	relative viability ([5]; first compound 0.08 µM)	relative viability ([5]; first compound 0.253 µM)	relative viability ([5]; first compound 0.8 µM)	relative viability ([5]; first compound 2.53 µM)
PC-14	1.03	0.953	0.903	0.879	0.142	0.125	0.14	0.122	0.547	0.522	0.567	0.606	0.832	0.885	0.832	0.812	0.817	0.527	0.435	0.487
LC-2-ad	0.858	0.847	0.819	0.855	0.259	0.253	0.257	0.276	0.461	0.396	0.474	0.482	0.975	0.934	0.943	1.06	0.689	0.531	0.533	0.584
HCC-78	0.515	0.465	–	0.474	0.918	0.918	0.848	0.927	0.263	0.464	0.411	0.465	0.486	0.571	0.403	0.571	0.713	0.754	0.724	0.605
LOU-NH91	0.901	0.956	0.802	0.923	0.375	0.407	0.331	0.368	0.7	0.696	0.659	0.637	0.487	0.529	0.463	0.443	0.886	0.689	0.706	0.747
NCI-H1734	1.01	0.981	0.814	0.968	0.438	0.4	0.353	0.352	0.28	0.266	0.228	0.22	1.02	0.982	0.778	0.775	0.344	0.381	0.37	0.332
NCI-H596	1.15	1.13	1.05	1.14	0.49	0.442	0.512	0.477	0.826	0.869	0.937	0.92	1.34	0.969	1.03	1.28	0.724	0.802	0.78	0.709
NCI-H1993	–	0.616	0.641	0.706	0.622	0.626	0.545	0.541	0.58	0.584	0.554	0.637	–	0.915	1.17	1.27	0.473	0.481	0.527	0.566
NCI-H647	0.966	0.946	1	1.17	0.185	0.178	0.173	0.146	0.259	0.212	0.408	0.235	1.08	0.871	0.667	0.35	0.664	0.4	0.546	0.228
NCI-H1755	1.02	0.911	0.881	0.934	0.418	0.555	0.502	0.395	0.475	0.493	0.453	0.524	0.95	0.878	0.807	0.505	0.698	0.589	0.511	0.566
SW 1573	0.887	0.771	0.626	0.738	0.948	0.791	0.706	0.638	0.212	0.171	0.142	0.153	1.16	0.869	1	0.82	0.318	0.349	0.296	0.285
NCI-H650	1.12	0.84	0.659	0.763	1.02	0.956	0.958	0.936	0.713	0.667	0.623	0.696	1	0.765	0.635	0.655	0.518	0.497	0.47	0.489
UMC-11	1.09	0.986	1.03	0.959	0.845	0.763	0.814	0.562	0.189	0.201	0.199	0.21	0.863	0.635	0.769	0.397	0.348	0.321	0.349	0.356
HCC-15	0.873	0.821	0.857	0.715	0.219	0.208	0.207	0.211	0.246	0.44	0.35	0.375	1.11	1	0.978	0.862	0.555	0.437	0.41	0.435
NCI-H2228	0.68	0.763	0.572	0.66	0.365	0.315	0.361	0.226	0.236	0.207	0.227	0.156	1.19	1.12	0.847	0.659	0.368	0.344	0.29	0.189
NCI-H2087	1.06	0.909	1.11	0.969	0.724	0.659	0.67	0.573	0.248	0.277	0.264	0.162	1.1	0.774	0.768	0.736	0.457	0.495	0.437	0.418
